Experimental data from patent publication US4496591A, “Insecticidal bis-carbamate sulfides” (priority 1981, dated 1985).

Tests used:
Format in all cases: in vivo
Parameters in all cases: key: A: excellent control; B: partial control; C: no control at 500 ppm
[1] = system: bean aphid (Aphis fabae Scop.); assay: Bean aphid foliage spray test; conditions: 500 parts per million, 24 hour
Protocol: (§1) Suspensions of the test compounds were prepared by dissolving one gram of compound in 50 milliliters of acetone in which had been dissolved 0.1 gram (10 percent of the weight of compound) of an alkylphenoxy polyethoxyethanol surfactant, as an emulsifying or dispersing agent. The resulting solution was mixed into 150 milliliters of water to give roughly 200 milliliters of a suspension containing the compound in finely divided form. The thus-prepared stock suspension contained 0.5 percent by weight of compound. The concentrations in parts per million by weight employed in the tests described hereinbelow were obtained by appropriate dilutions of the stock suspension with water. The test procedures were as follows:
Adults and nymphal stages of the bean aphid (Aphis fabae Scop.) reared on potted dwarf nasturtium plants at 68°-70° F. and 50±5 percent relative humidity, constituted the test insects. For testing purposes, the number of aphids per pot were standardized to 100-150 by trimming plants containing excess aphids.
The test compounds were formulated by diluting the stock suspension with water to give a suspension containing 500 parts of test compound per million parts of final formulation.
The potted plants (one pot per compound tested) infested with 100-150 aphids, were placed on a revolving turntable and sprayed with 100-110 milliliters of test compound formulation by use of a DeVilbiss spray gun set at 40 psig. air pressure. This application, which lasted 25 seconds, was sufficient to wet the plants to run-off. As a control, 100-110 milliliters of a water-acetone-emulsifier solution containing no test compound was also sprayed on infested plants. After spraying, the pots were placed on their sides on a sheet of white standard mimeograph paper which had been previously ruled to facilitate counting. Temperature and humidity in the test room during the 24 hour holding period were 68°-70° F. and 50±5 percent, respectively. Aphids which fell onto the paper and were unable to remain standing after being uprighted were considered dead. Aphids remaining on the plants were observed closely for movement and those which were unable to move the length of the body upon stimulation by prodding were considered dead.
(§2) In these tests the pesticidal activity of the compounds at the indicated dosage rate against aphid, Southern Armyworm, Bean Beetle and housefly was rated as follows: […]

[2] = system: house flies (Musca domestica, L.); assay: Fly bait test; conditions: 500 parts per million, sugar bait, twenty-four hours
Protocol: as §1
Four to six day old adult house flies (Musca domestica, L.), reared according to the specifications of the Chemical Specialties Manufacturing Association (Blue Book, McNair-Dorland Co., N.Y. 1954; pages 243-244, 261) under controlled conditions of 80±5° F. and 50±5 percent relative humidity, were the test insects. The flies were immobilized by anesthetizing them with carbon dioxide. Twenty-five immobilized individuals, males and females, were transferred to a cage consisting of a standard food strainer about five inches in diameter which was inverted over a wrapping-paper-covered surface. The test compounds were formulated by diluting the stock suspension with a 10 percent (by weight) sugar solution to give a suspension containing 500 parts of test compound per million parts of final formulation, by weight. Ten milliliters of the test formulation were added to a souffle cup containing a one-inch square of an absorbent cotton pad. This bait cup was introduced and centered on the blotting paper under the food strainer prior to admitting the anesthetized flies. The caged flies were allowed to feed on the bait for twenty-four hours, at a temperature of 80±5° F. and at a relative humidity of 50±5 percent.
as §2

[3] = system: southern armyworm (Spodoptera eridania, (Cram.)) larvae; assay: Southern armyworm leaf spray bait test; conditions: 500 parts per million, three days
Protocol: as §1
Larvae of the southern armyworm (Spodoptera eridania, (Cram.)), reared on Tendergreen bean plants at a temperature of 80±5° F. and a reative humidity of 50±5 percent, constituted the test insects.
The test compounds were formulated by diluting the stock suspension with water to give a suspension containing 500 parts of test compound per million parts of final formulation. Potted Tendergreen bean plants of standard height and age were placed on a revolving turntable and sprayed with 100-110 milliliters of test compound formulation by use of a DeVilbiss spray gun set at 40 psig air pressure. This application, which lasted 25 seconds, was sufficient to wet the plants to run-off. As a control, 100-110 milliliters of a water-acetone-emulsifier solution containing no test compound were also sprayed on infested plants. When dry, the paired leaves were separated and each one was placed in a 9 centimeter Petri dish lines with moistened filter paper. Five randomly selected larvae were introduced into each dish and the dishes were closed. The closed dishes were labeled and held at 80°-85° F. for three days. Although the larvae could easily consume the whole leaf within twenty-four hours, no more food was added. Larvae which were unable to move the length of the body, even upon stimulation by prodding, were considered dead.
as §2

CSC(C)=NOC(=O)N(C)SN(C)C(=O)Oc1cccc(C=O)c1 [Compound 3]
A: Aphids, pesticidal activity rating [1] | Housefly, pesticidal activity rating [2] | Southern Armyworm, pesticidal activity rating [3]
